Source: US9289381B2, “Stabilization and storage of biological pharmaceutical compositions” (The University of North Carolina at Charlotte, priority 2009, dated 2016)
pEC50: −log10 of the molar value. Values joined by “and” are separate entries in the source; they are usually repeats but may differ in a detail not shown here. Equal entries are not always repeated. Where two headings read alike, the source gives them in different places.

What was measured:
[1] = 350 mg/ml vs 1 mg/ml, aqueous solvent; cited from earlier work
[2] = Osmolality by vapor pressure osmometer, osmotic coefficient; type: physicochemical
[3] = tested on: J774 murine macrophage cell line
[4] = cited from earlier work
[5] = tested on: J774 murine macrophage cell line; assay: cells; conditions: Mus musculus, J774, 48 h
[6] = tested on: HT-2 cells
[7] = tested on: B16-F10 melanoma cells
[8] = tested on: mouse splenocytes; conditions: 24 h; for concentration with cytotoxicity (viability diminishes): splenocytes, medium without added buffer
[9] = Yoshizawa-Fujita 2007; cited from earlier work
[10] = 100 mM solutions in deionized water
[11] = read-out: Log EC50, μM (Dose Response Model) (converted)

Compound: hemoglobin
- increase of transition temperature at the higher concentration [1]: 8 °C

Compound: CCCCC(CC)COP(=O)(O)OCC(CC)CCCC.CN(C)CCO (stereo not shown) [CBEH, Choline bis(2,ethyl hexyl) phosphate]
- osmotic coefficient (φ) ([2]; 100 mM in water, 1 indicates 100% dissociation): 0.3
- Osmotic Coef., φ in H2O [2, 10]: 0.31
- anion effect ratio (AR) [3]: 113
- shape of dose response [3]: hormetic response
- Log EC50, μM (Dose Response Model) ([3]; J774, 48 h, value is the logarithm of EC50, error of last digit in parentheses, equation 1): 2.47 (3) μM
- Log EC50, μM (Logistic Model) ([3]; J774, 48 h, value is the logarithm of EC50, modified (hormesis) model, equation 2, error of last digit in parentheses): 2.43 (3) μM
- pEC50 ([3]; J774, 48 h exposure): 3.52

Compound: fibrinogen
- increase of transition temperature at the higher concentration [1]: 3 °C

Compound: cyt C: cytochrome c, protein of earlier literature studies in 80% w/w CDHP
- thermal transition midpoint temperature before shift ([4]; Fujita 2006, 2007): 80 C.°
- concentration dissolved ([4]; in 80% w/w CDHP (Fujita 2005, 2006)): 37000 µg/mL
- thermal transition midpoint temperature after shift ([4]; stabilized in CDHP, Fujita 2006, 2007): 120 C.°

Compound: C[N+](C)(C)CCO.O=P([O-])(O)O [CDHP, choline dihydrogen phosphate]
- pEC50 [5]: 1.70
- EC50 [5, 11]: 20400 µM
- EC50 ([5]; read-out: Log EC50, μM (Logistic Model) (converted)): 19100 µM
- cytotoxic effect toward HT-2 lymphocytes [6]: no immediate cytotoxic effect
- concentration range not cytotoxic ([6]; mouse): 0 to 30000 µM
- concentration range with no cytotoxic activity detected ([7]; buffered medium ([…] (w/v) sodium bicarbonate), 24 h): 0 to 80000 µM
- concentration not cytotoxic ([7]; final culture medium concentration): 1000 to 30000 µM
- cytotoxic activity ([7]; up to 80 mM C-DHP, DMEM F12 complete medium, 24 h, not buffered): doesn't demonstrate any significant cytotoxic activity
- concentration range with no cytotoxic activity detected ([8]; buffered medium ([…] (w/v) sodium bicarbonate)): 0 to 80000 µM
- concentration with cytotoxicity (viability diminishes) [8]: > 35000 µM and > 40000 µM
- concentration with cytotoxicity (viability diminishes) ([8]; listed as Choline-DHP): > 30000 µM
- shape of dose response [3]: hormetic response
- anion effect ratio (AR) ([3]; mouse, pH 7.53): 1.7
- thermal stability by thermal gravimetric analysis [9]: up to 200 °C

Compound: Choline dibutyl phosphate [CDBP]
- Osmotic Coef., φ in H2O [2]: 0.90
- osmotic coefficient (φ) [2]: 0.9
- pEC50 [3]: 2.04
- Log EC50, μM (Dose Response Model) [3]: 3.96 (3) μM
- anion effect ratio (AR) [3]: 3.7

Compound: [Cl-].[Na+] [Sodium chloride, reference compound]
- Osmotic Coef., φ in H2O [2]: 0.91
- pEC50 [3]: 1.20
- Log EC50, μM (Dose Response Model) [3]: 4.8 (1) μM

Compound: C[N+](C)(C)CCO.[Cl-] [Choline chloride, reference compound]
- pEC50 [5]: 1.47
- EC50 [5, 11]: 33900 µM
- Osmotic Coef., φ in H2O [2]: 0.86
- pEC50 [3]: 1.47

Compound: OC[C@H]1O[C@H](O[C@H]2O[C@H](CO)[C@@H](O)[C@H](O)[C@H]2O)[C@H](O)[C@@H](O)[C@@H]1O [Trehalose, reference compound]
- pEC50 [5]: < 1.00
- Osmotic Coef., φ in H2O [2, 10]: 1.01
